Data as given in PMC5383040, “Inhibition of prenylated KRAS in a lipid environment” (PLoS ONE, 2017).
Like-named read-outs stand apart in the source and are kept apart here.

What was measured:
[1] = biological target: T1, GTPγS-loaded, prenylated KRAS^G12V (Homo sapiens, UniProt P01116, G12V); assay: Coupled KRAS-BRAF-MEK assay (BRAF activation by KRAS, AlphaScreen pMEK readout); format: biochemical
T1 construct: made in house; host or cells: insect cells (Sf9, Sf21 or Tn5), baculovirus

full length BRAF^V600E = biological target: T2, full length BRAF^V600E (Homo sapiens, UniProt P15056, V600E); assay: BRAF^V600E counter-screen (coupled assay lacking KRAS); format: biochemical
T2 construct: made in house; host or cells: insect cells (Sf9, Sf21 or Tn5), baculovirus pBlueBac4.5
Method: An assay consisting of full length BRAF^V600E was used to flag inhibitors acting directly on BRAF, taking advantage of the constitutive activity of the BRAF mutant. […] The counter assay buffer, other components and order of addition matched the RAS-dependent assay except for the presence of KRAS. This assay was reproducible from run to run. […] After establishing reproducibility with this compound, all other compounds were measured with N≥2.

SW1990 cells = assay: Proliferation assay (CellTiter-Glo); format: cell-based; details: Homo sapiens, 120 h, 5 days, read-out: Growth inhibition EC50
Method: Cells were seeded in 384-well plates and incubated with a 1:3 serial dilution of compound starting from 30 μM at 37°C with 5% CO2 for 5 days. Cell viability was measured using the CellTiter-Glo® Luminescent Cell Viability Assay kit (Promega) and read on an Envision (Perkin Elmer) plate reader. Percent growth inhibition was calculated by normalizing treatment to DMSO control. […] For every compound, each concentration was run in triplicate and all points were used for fitting a single curve.

SW1990 cells (KRAS^G12D) = assay: Western blot analysis of pAKT and pERK in SW1990; format: cell-based, human; details: 3hrs treatment, dose-response
Method: (§1) Cells were seeded in 6-well plates and treated with compounds or DMSO at the indicated concentrations for 3hrs. Total cell lysates were prepared in either M-PER (Pierce) or RIPA lysis buffer (50 mM Tris-HCl, pH 8.0, 150 mM NaCl, 0.5% NP-40, 0.5% sodium deoxycholate) supplemented with 1x protease inhibitor cocktail (Sigma) and 1x phosphatase inhibitor cocktails (Sigma). Lysates were normalized for protein concentration, resolved by SDS-PAGE, transferred onto nitrocellulose membranes and probed with the indicated antibodies.

[2] = biological target: T3, prenylated KRAS^G12V loaded with GTPγS (Homo sapiens, UniProt P01116, G12V); assay: Biolayer interferometry (BLI) binding to full-length prenylated KRAS in PS; details: for binding in BLI studies: at 10 μM, full-length prenylated KRAS in PS
T3 construct: Avi-tag-(Gly)8 –KRAS^G12V (2–188) was cloned into the pFastBac1 vector; made in house; host or cells: Tn5 insect cells, co-infected with BirA virus
Method: Determination of Kds was performed on the Octet RED platform, according to the manufacturer's recommendations in their application note on small molecule analysis. The prenylated KRAS peptide containing the farnesyl group attached to the terminal cysteine (biotin-[sequence](farnesyl)-OCH3) was obtained from AnaSpec (Fremont, California). […] After incubation for 1h at RT, the protein was loaded into a 96-well plate (Greiner 655209), and loaded a BLI response of 3-4nm. […] A reference sensor was run to remove systematic drift, and a second set of SuperStreptavidin biosensors blocked with biocytin was examined to remove systematic optical interferences, and to check for non-specific binding of compounds to the biosensor. Kds were determined using the ForteBio analysis software tool, which determines Kd from the steady-state plot, or from the determination of the kinetic constants kon and koff.

[3] = biological target: T4, non-prenylated GDP-KRAS^G12V (Homo sapiens, UniProt P01116, G12V); assay: HSQC NMR binding / titration; details: non-processed GDP-loaded KRAS^G12V (1–169) in aqueous buffer, no PS; estimated from titration
T4 construct: HSQC experiments were run with ^15N-labeled and GDP-loaded K-RAS^G12V (1–169)
Method: (§2) The buffer contained 20mM Tris HCl, pH8.0, 50mM NaCl, 1mM MgCl2, 2mM DTT. […] 500 fragments from a fragment library [53] were screened by T1ρ ligand observation experiments, followed by protein-observed HSQC experiments. ^31P NMR spectra were acquired at 278°K on a Bruker AV400 spectrometer operating at 161.6 MHz ^31P frequency, equipped with a BBO probe.

A375 cells (BRAF^V600E) = assay: Western blot analysis of pAKT and pERK in A375; format: cell-based; details: 3hrs treatment
Method: as §1

[4] = biological target: T5, non-prenylated GMPPNP-loaded KRAS^G12V (Homo sapiens, UniProt P01116, G12V); assay: 31P-NMR conformational state of KRAS; details: KRAS^G12V 5 mg/ml; 1 mM compound 2 or 0.5 mM CRAF-RBD
T5 construct: HSQC experiments were run with ^15N-labeled and GDP-loaded K-RAS^G12V (1–169)
Method: as §2

KRAS construct 1–180 = biological target: T6, KRAS construct 1–180 (Homo sapiens, UniProt P01116, G12V); assay: BLI control with KRAS construct lacking the C-terminus; format: binding; details: KRAS 1–180 lacking C-terminus and prenyl group, 10 μM compound
T6 construct: (His)6-TEV (N, cleaved yes); made in house; host or cells: E. coli BL21 (DE3), co-transformed with BirA

full-length KRAS = biological target: T7, full-length KRAS (Homo sapiens, UniProt P01116, G12V); assay: BLI control with full-length KRAS in the absence of PS; format: binding
T7 construct: Avi-tag-(Gly)8 –KRAS^G12V (2–188) was cloned into the pFastBac1 vector; made in house; host or cells: Tn5 insect cells, co-infected with BirA virus
Method: Determination of Kds was performed on the Octet RED platform, according to the manufacturer's recommendations in their application note on small molecule analysis. The prenylated KRAS peptide containing the farnesyl group attached to the terminal cysteine (biotin-[…](farnesyl)-OCH3) was obtained from AnaSpec (Fremont, California). Proteins were obtained as described above. […] The protein was attached to SuperStreptavidin biosensors (ForteBio 18–5057) via Avi-tagged-KRAS G12V:[…], followed by the KRAS protein to a final concentration of 40nM. After incubation for 1h at RT, the protein was loaded into a 96-well plate (Greiner 655209), and loaded a BLI response of 3-4nm. […] A reference sensor was run to remove systematic drift, and a second set of SuperStreptavidin biosensors blocked with biocytin was examined to remove systematic optical interferences, and to check for non-specific binding of compounds to the biosensor. Kds were determined using the ForteBio analysis software tool, which determines Kd from the steady-state plot, or from the determination of the kinetic constants kon and koff. […] After establishing reproducibility with compound 3, all other compounds were measured in singleton.

[5] = biological target: T8, 18-residue KRAS C-terminal prenylated peptide (Homo sapiens, UniProt P01116); assay: BLI with KRAS C-terminal prenylated peptide in PS; format: binding
T8 construct: (biotin-[…](farnesyl)-OCH3) was obtained from AnaSpec (Fremont, California); purchased AnaSpec (Fremont, California); host or cells: synthetic peptide
Method: Determination of Kds was performed on the Octet RED platform, according to the manufacturer's recommendations in their application note on small molecule analysis. The prenylated KRAS peptide containing the farnesyl group attached to the terminal cysteine (biotin-[…](farnesyl)-OCH3) was obtained from AnaSpec (Fremont, California). Proteins were obtained as described above. The assay buffer was 25mM Tris containing 190mM glycine, 5mM MgCl2, 0.01% Triton X-100, 1mM DTT and 1.3uM PS (liposome preparation as described above). The protein was attached to SuperStreptavidin biosensors (ForteBio 18–5057) via Avi-tagged-KRAS G12V:GTPγS with C-terminal prenylgroup by adding 2μL of the 5mg/mL solution of PS to 2mL of assay buffer, followed by the KRAS protein to a final concentration of 40nM. After incubation for 1h at RT, the protein was loaded into a 96-well plate (Greiner 655209), and loaded a BLI response of 3-4nm. […] Kds were determined using the ForteBio analysis software tool, which determines Kd from the steady-state plot, or from the determination of the kinetic constants kon and koff. […] After establishing reproducibility with compound 3, all other compounds were measured in singleton.

[6] = biological target: truncated GDP-loaded KRAS; details: cited from earlier work
[7] = parameters: method as in PMID 22431598; details: cited from earlier work
[8] = GTPγS-loaded full-length prenylated KRAS^G12V in PS, geomean, read-out: Coupled assay IC50
[9] = BRAF^V600E, no KRAS, geomean, read-out: Counter-screen IC50
[10] = full-length prenylated GTPγS-loaded KRAS^G12V, PS liposomes, read-out: Kd BLI
[11] = non-processed GDP-loaded KRAS in aqueous buffer, read-out: Kd HSQC

T2 sequence (P15056 whole entry V600E): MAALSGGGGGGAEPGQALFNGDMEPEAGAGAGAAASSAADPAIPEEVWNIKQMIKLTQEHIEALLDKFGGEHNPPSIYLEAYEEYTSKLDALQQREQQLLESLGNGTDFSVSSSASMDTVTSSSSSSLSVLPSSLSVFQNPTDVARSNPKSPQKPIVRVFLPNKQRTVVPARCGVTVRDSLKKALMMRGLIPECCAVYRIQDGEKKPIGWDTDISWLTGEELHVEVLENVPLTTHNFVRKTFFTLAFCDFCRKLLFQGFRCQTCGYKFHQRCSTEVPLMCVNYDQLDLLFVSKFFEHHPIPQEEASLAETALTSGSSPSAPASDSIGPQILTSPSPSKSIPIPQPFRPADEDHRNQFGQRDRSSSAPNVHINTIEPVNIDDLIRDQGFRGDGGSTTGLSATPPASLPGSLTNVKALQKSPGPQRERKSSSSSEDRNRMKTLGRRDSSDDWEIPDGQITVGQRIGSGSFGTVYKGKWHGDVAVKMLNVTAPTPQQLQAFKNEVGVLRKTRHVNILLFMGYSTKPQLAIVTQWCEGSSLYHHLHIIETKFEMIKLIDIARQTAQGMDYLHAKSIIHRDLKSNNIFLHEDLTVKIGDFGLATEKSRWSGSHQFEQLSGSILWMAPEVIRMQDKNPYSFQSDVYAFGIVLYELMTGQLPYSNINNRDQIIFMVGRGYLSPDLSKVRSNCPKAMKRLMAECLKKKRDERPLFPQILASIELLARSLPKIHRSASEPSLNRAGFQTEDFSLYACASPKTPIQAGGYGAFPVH

| SMILES | IC50 [1, 8] [µM] | IC50 (full length BRAF^V600E; [9]) [µM] | EC50 (SW1990 cells) [µM] | effect on pAKT and pERK (cellular activity) (SW1990 cells (KRAS^G12D)) | activity in the counter-screen (full length BRAF^V600E) | binding in BLI studies [2] | Kd [2, 10] [µM] | effect on pAKT levels (A375 cells (BRAF^V600E)) | binding to prenylated peptide in BLI [5] | activity in the coupled assay [1] | Kd [6, 11] [µM] | also measured |
| --- | --- | --- | --- | --- | --- | --- | --- | --- | --- | --- | --- | --- |
| CC(C)NCC(O)COc1cccc2cc[nH]c12 (centres unmarked) [Compound 1] | 87 ± 22 | > 250 | > 30 | inactive at the concentrations tested |  |  |  |  |  |  |  |  |
| O=C(N[C@H]1CCN[C@H](Cc2ccc(Cl)cc2)C1)c1c[nH]c2ccc(Br)cc12 [Compound 2] | 0.8 ± 0.7 | 85 ± 47 | 2.7 ± 1.4 | dose-dependent decreases in phosphorylation of both of the pathway markers | minimal activity was observed | minor non-specific binding | 0.8 | unexpected pattern of modulation |  |  |  | Kd [3]: 690 µM; γ-phosphate population (conformational state) by 31P-NMR [4]: shift to a single inactive population |
| Clc1ccc(C[C@@H]2C[C@@H](NCc3c[nH]c4ccccc34)CCN2)cc1 [Compound 3] | 1.2 | > 25 | 1.2 | dose-dependent decreases in phosphorylation of both of the pathway markers | minimal activity was observed |  | 2.6 ± 0.8 | unexpected pattern of modulation | binds to the prenylated peptide in a concentration-dependent manner |  |  | binding in BLI (KRAS construct 1–180): minimal binding was observed; binding in BLI (full-length KRAS; 10 μM compound): some binding was observed; binding in BLI (full-length KRAS; up to 3.3 μM compound): no binding was observed |
| O=C(N[C@H]1CCN(Cc2ccc(O)nc2)C1)c1c[nH]c2ccc(Cl)cc12 [Compound 4] | 49 | 115 | > 30 | inactive at the concentrations tested |  | did not bind | > 10 |  | did not bind | negligible biochemical activity |  |  |
| Cc1[nH]c2cc(Cl)cc(Cl)c2c1CCN [Compound 5, reference compound] |  |  | 18 | double-digit μM potency in cells |  |  |  |  |  |  | 1100 | IC50 [1]: 7 µM; IC50 (full length BRAF^V600E): 29 µM; Kd [2]: 34 µM; Kd ([6]; absence of a lipid environment, read-out: published Kd to truncated GDP-loaded KRAS): 1000 µM; potency in cell-based assays [7]: 16 µM |
| O=C(Nc1ccc2nc(Cc3c[nH]c4ccccc34)[nH]c2c1)C1CCCN1 (centres unmarked) [Compound 6, reference compound] |  | 134 | > 30 | inactive in cells | negligible activity |  |  |  |  | negligible activity | 340 |  |
